Reference: PMC10955399 (RSC Advances, 2024)

Experiments:
[1] = tested on: Escherichia coli (MTCC2412); assay: Agar well diffusion antibacterial activity; assay type: cell-based; conditions: for Zone of inhibition, Escherichia coli: compound 1 mg mL^−1, radius of inhibition zone
[2] = tested on: Bacillus cereus (MTCC2128); assay: Agar well diffusion antibacterial activity; assay type: cell-based; conditions: for inhibitory activity against Bacillus cereus (in words): 1 mg mL^−1; for Zone of inhibition, Bacillus cereus: 100 μl, compound 1 mg mL^−1, radius of inhibition zone
[3] = tested on: Enterococcus faecium; conditions: at the concentration tested; cited from earlier work
[4] = tested on: Staphylococcus; conditions: at the concentration tested; cited from earlier work
[5] = tested on: Acinetobacter baumannii; conditions: cited from earlier work

Nc1ncnc2c1cnn2C=C1CC1(CO)CO [10a (Z-Isomer), (2-((4-amino-1H-pyrazolo[3,4-d]pyrimidin-1-yl)methylene)cyclopropane-1,1-diyl) dimethanol]
Zone of inhibition, Escherichia coli ([1]; 75 μl): 0.9 ± 0.05 mm
Zone of inhibition, Escherichia coli ([1]; 100 μl): 1.2 ± 0.15 mm

Nc1ncnc2c1c(-c1ccc(Oc3ccccc3)cc1)nn2C=C1CC1(CO)CO [10c (E&Z), (2-((4-amino-3-(4-phenoxyphenyl)-1H-pyrazolo[3,4-d]pyrimidin-1-yl)methylene)cyclopropane-1,1-diyl) dimethanol]
inhibitory activity against Bacillus cereus (in words) [2]: showed inhibitory activity

Nc1ncnc2c1c(I)nn2C=C1CC1(CO)CO [10b (Z-Isomer), (2-((4-amino-3-iodo-1H-pyrazolo[3,4-d]pyrimidin-1-yl)methylene)cyclopropane-1,1-diyl)dimethanol]
Zone of inhibition, Bacillus cereus [2]: 2.2 ± 0.25 mm

CC(C)=CCCC1(C)C(CC=C(C)C)CC23CCC(C)(C)OC2=C(C(=O)c2ccc(O)c(O)c2)C(=O)C1(CC=C(C)C)C3=O (centres unmarked) [schomburgkianone I]
inhibitory effect on Enterococcus faecium (in words) [3]: exhibited inhibitory effects
inhibitory effect on Staphylococcus (in words) [4]: exhibited inhibitory effects
activity against Acinetobacter baumannii (in words) [5]: no activity

Nc1ncnc2c1cnn2C=C1CC1(CO)CO [10a (E-Isomer), (2-((4-amino-1H-pyrazolo[3,4-d]pyrimidin-1-yl)methylene)cyclopropane-1,1-diyl) dimethanol]
zone of inhibition against Escherichia coli (in words) ([1]; 1 mg mL^−1): zone of inhibition was observed
Zone of inhibition, Escherichia coli ([1]; 75 μl): 0.9 ± 0.05 mm
inhibitory activity against Bacillus cereus (in words) [2]: showed inhibitory activity

Nc1ncnc2c1cnn2C=C1CC1(CO)CO [10a (E&Z), (2-((4-amino-1H-pyrazolo[3,4-d]pyrimidin-1-yl)methylene)cyclopropane-1,1-diyl) dimethanol]
Zone of inhibition, Escherichia coli ([1]; 100 μl, listed as 10a): 1.2 ± 0.15 mm
Zone of inhibition, Bacillus cereus ([2]; listed as 10a): 2.2 ± 0.25 mm

Nc1ncnc2c1c(I)nn2C=C1CC1(CO)CO [10b (E&Z), (2-((4-amino-3-iodo-1H-pyrazolo[3,4-d]pyrimidin-1-yl)methylene)cyclopropane-1,1-diyl)dimethanol]
inhibitory activity against Bacillus cereus (in words) [2]: showed inhibitory activity
Zone of inhibition, Bacillus cereus ([2]; listed as 10b): 1.4 ± 0.1 mm
